Measured values as given in US8772509B2, “Indole compounds as positive allosteric modulators of the muscarinic receptor” (Vanderbilt University, priority 2010, dated 2014).

Target: T1, mAChR M1 (UniProt P08482)
T1 sequence (P08482 1-460): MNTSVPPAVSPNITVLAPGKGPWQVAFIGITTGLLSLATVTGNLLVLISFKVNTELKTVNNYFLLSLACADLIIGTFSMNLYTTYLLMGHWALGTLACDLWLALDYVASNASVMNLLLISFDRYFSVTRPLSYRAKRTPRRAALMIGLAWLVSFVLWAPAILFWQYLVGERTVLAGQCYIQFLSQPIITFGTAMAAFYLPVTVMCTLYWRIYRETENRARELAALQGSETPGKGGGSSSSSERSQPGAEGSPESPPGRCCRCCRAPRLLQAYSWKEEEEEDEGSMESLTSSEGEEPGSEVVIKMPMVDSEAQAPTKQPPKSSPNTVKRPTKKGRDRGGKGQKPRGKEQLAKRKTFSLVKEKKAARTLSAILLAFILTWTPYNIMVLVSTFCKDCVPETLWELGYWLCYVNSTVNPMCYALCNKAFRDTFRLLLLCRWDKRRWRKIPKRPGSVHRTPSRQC
Assay: mAChR M1 cell-based functional assay (calcium mobilization, Fluo-4, FDSS)
Settings: for EC50: positive allosteric modulation of EC20 acetylcholine response, CHO-K1 cells expressing mAChR M1, read-out: Potency (EC50); for Efficacy (% ACh maximum at 30 μM): maximal calcium flux response from curve fit or response at 30 μM compound, as % of the EC80 ACh response
Method: Chinese hamster ovary (CHO-K1) cells stably expressing rat (r)M1 were purchased from the American Type Culture Collection and cultured according to their indicated protocol. […] To make stable rM2, hM2, rM3, hM4, and rM4 cell lines for use in calcium mobilization assays, these cells also were stably transfected with a chimeric G-protein (Gqi5) (provided by B. R. Conklin, University of California, San Francisco) using Lipofectamine 2000. rM1, hM1, rM3, hM3, rM5, and hM5 cells were grown in Ham's F-12 medium containing 10% heat-inactivated fetal bovine serum (FBS), 20 mM HEPES, and 50 μg/mL G418 sulfate. rM2-Gqi5, hM2-Gqi5, and hM4-Gqi5 cells were grown in the same medium also containing 500 μg/mL Hygromycin B. Stable rM4-Gqi5 cells were grown in DMEM containing 10% heat-inactivated FBS, 20 mM HEPES, 400 μg/mL G418 sulfate, and 500 μg/mL Hygromycin B.
For high throughput measurement of agonist-evoked increases in intracellular calcium, CHO-K1 cells stably expressing muscarinic receptors were plated in growth medium lacking G418 and hygromycin at 15,000 cells/20 μL/well in Greiner 384-well black-walled, tissue culture (TC)-treated, clear-bottom plates (VWR). Cells were incubated overnight at 37° C. and 5% CO2. […] Compound master plates were formatted in an 11 point CRC format (1:3 dilutions) in 100% DMSO with a starting concentration of 10 mM using the BRAVO liquid handler (Agilent). Test compound CRCs were then transferred to daughter plates (240 nL) using the Echo acoustic plate reformatter (Labcyte, Sunnyvale, Calif.) and then diluted into assay buffer (40 μL) to a 2× stock using a Thermo Fisher Combi (Thermo Fisher Scientific, Waltham, Mass.).
Calcium flux was measured using the Functional Drug Screening System (FDSS) 6000 (Hamamatsu Corporation, Tokyo, Japan) as an increase in the fluorescent static ratio. Compounds were applied to cells (20 μL, 2×) using the automated system of the FDSS 6000 at 4 s into the 300 s protocol and the data were collected at 1 Hz. […] Agonist activity was analyzed as a concentration-dependent increase in calcium mobilization upon compound addition. Positive allosteric modulator activity was analyzed as a concentration-dependent increase in the EC20 acetylcholine response. Antagonist activity was analyzed as a concentration-dependent decrease in the EC80 acetylcholine response. Concentration-response curves were generated using a four-parameter logistical equation in XLfit curve fitting software (IDBS, Bridgewater, N.J.) for Excel (Microsoft, Redmond, Wash.) or Prism (GraphPad Software, Inc., San Diego, Calif.).
The calcium mobilization assay was also used to determine “efficacy”. In the context of the assays carried out for the data in Table I, “efficacy” (% ACh at 30 μM) is defined as the maximal response in the calcium flux as determined by the sigmoidal curve fit of the concentration response curve, or in the absence of an acceptable curve fit, the response recorded at 30 μM test compound, stated as a percentage of the response elicited by a concentration of Ach that induces approximately 80% of a maximal (i.e. saturating) ACh response.

| EC50 [µM] | Efficacy (% ACh maximum at 30 μM) [%] | SMILES |
| --- | --- | --- |
| 5.22 | – | Cc1cc(NC(=O)CS(=O)(=O)c2cn(Cc3cccc(F)c3)c3ccccc23)no1 [compound 28, 2-((1-(3-fluorobenzyl)-1H-indol-3-yl)sulfonyl)-N-(5-methylisoxazol-3-yl)acetamide] |
| 3.79 | 91 | Cc1cc(NC(=O)CS(=O)(=O)c2cn(Cc3cccc(Br)c3)c3ccccc23)no1 [compound 22, 2-((1-(3-bromobenzyl)-1H-indol-3-yl)sulfonyl)-N-(5-methylisoxazol-3-yl)acetamide] |
| > 10 | – | Cc1cc(NC(=O)CS(=O)(=O)c2cn(Cc3ccc4c(c3)OCO4)c3ccccc23)no1 [compound 50, 2-[1-(2H-1,3-benzodioxol-5-ylmethyl)-1H-indole-3-sulfonyl]-N-(5-methyl-1,2-oxazol-3-yl)acetamide] |
| > 10 | 49 | O=C(CS(=O)(=O)c1cn(Cc2cccc(Br)c2)c2cc(F)cc(F)c12)Nc1cncs1 [compound 38, 2-((1-(3-bromobenzyl)-4,6-difluoro-1H-indol-3-yl)sulfonyl)-N-(thiazol-5-yl)acetamide] |
| 5.6 | 69 | Nc1cccc(Cn2cc(S(=O)(=O)CC(=O)Nc3ccccn3)c3c(F)cc(F)cc32)c1 [compound 31, 2-((1-(3-aminobenzyl)-4,6-difluoro-1H-indol-3-yl)sulfonyl)-N-(pyridin-2-yl)acetamide] |
| 4.4 | 38 | O=C(CS(=O)(=O)c1cn(Cc2cccc(-c3cccnc3F)c2)c2cc(F)cc(F)c12)Nc1ccccn1 [compound 24, 2-((4,6-difluoro-1-(3-(2-fluoropyridin-3-yl)benzyl)-1H-indol-3-yl)sulfonyl)-N-(pyridin-2-yl)acetamide] |
| > 10 | – | Cc1cc(NC(=O)CSc2c[nH]c3ccccc23)no1 [compound 41, 2-(1H-indol-3-ylsulfanyl)-N-(5-methyl-1,2-oxazol-3-yl)acetamide] |
| > 10 | – | COc1ccccc1Cn1cc(S(=O)(=O)CC(=O)Nc2cc(C)on2)c2ccccc21 [compound 47, 2-{1-[(2-methoxyphenyl)methyl]-1H-indole-3-sulfonyl}-N-(5-methyl-1,2-oxazol-3-yl)acetamide] |
| > 10 | – | Cc1cc(NC(=O)C(C)S(=O)(=O)c2cn(Cc3cc(Br)cc(Br)c3)c3ccccc23)no1 (centres unmarked) [compound 73, 2-{1-[(3,5-dibromophenyl)methyl]-1H-indole-3-sulfonyl}-N-(5-methyl-1,2-oxazol-3-yl)propanamide] |
| 5.37 | 103 | Cc1cc(NC(=O)CS(=O)(=O)c2cn(Cc3cccc(Br)c3)c3cc(F)cc(F)c23)no1 [compound 30, 2-((1-(3-bromobenzyl)-4,6-3-yl)sulfonyl)-N-(5-methylisoxazol-3-yl)acetamide] |

The next lines start with the compound.

| SMILES | EC50 [µM] | Efficacy (% ACh maximum at 30 μM) [%] |
| --- | --- | --- |
| Cc1cc(NC(=O)CS(=O)(=O)c2cn(Cc3ccc(F)c(Br)c3)c3ccccc23)no1 [compound 61, 2-{1-[(3-bromo-4-fluorophenyl)methyl]-1H-indole-3-sulfonyl}-N-(5-methyl-1,2-oxazol-3-yl)acetamide] | > 10 | – |
| Cc1cc(NC(=O)CS(=O)(=O)c2cn(Cc3cccc(-n4ccnn4)c3)c3cc(F)cc(F)c23)no1 [compound 3, 2-((1-(3-(1H-1,2,3-triazol-1-yl)benzyl)-4,6-difluoro-1H-indol-3-yl)sulfonyl)-N-(5-methylisoxazol-3-yl)acetamide] | 1.5 | 72 |
| O=C(CS(=O)(=O)c1cn(Cc2cccc(Br)c2)c2cc(F)cc(F)c12)Nc1cccnc1 [compound 35, 2-((1-(3-bromobenzyl)-4,6-difluoro-1H-indol-3-yl)sulfonyl)-N-(pyridin-3-yl)acetamide] | > 10 | 42 |
| Cc1cc(NC(=O)CSc2cn(Cc3ccccc3Cl)c3ccccc23)no1 [compound 42, 2-({1-[(2-chlorophenyl)methyl]-1H-indol-3-yl}sulfanyl)-N-(5-methyl-1,2-oxazol-3-yl)acetamide] | > 10 | – |
| Cc1cc(NC(=O)CS(=O)(=O)c2cn(Cc3cccc(-c4ccc(N5CCCC5)nc4)c3)c3ccccc23)no1 [compound 67, N-(5-methyl-1,2-oxazol-3-yl)-2-[1-({3-[6-(pyrrolidin-1-yl)pyridin-3-yl]phenyl}methyl)-1H-indole-3-sulfonyl]acetamide] | > 10 | – |
| COc1ccc(Cn2cc(S(=O)(=O)CC(=O)Nc3cc(C)on3)c3ccccc32)cc1 [compound 46, 2-{1-[(4-methoxyphenyl)methyl]-1H-indole-3-sulfonyl}-N-(5-methyl-1,2-oxazol-3-yl)acetamide] | > 10 | – |
| O=C(CS(=O)(=O)c1cn(Cc2cc(Br)ccc2F)c2ccccc12)Nc1ccccc1 [compound 59, 2-{1-[(5-bromo-2-fluorophenyl)methyl]-1H-indole-3-sulfonyl}-N-phenylacetamide] | > 10 | – |
| Cc1cc(NC(=O)CS(=O)(=O)c2cn(Cc3cccc(C#N)c3)c3ccccc23)no1 [compound 45, 2-{1-[(3-cyanophenyl)methyl]-1H-indole-3-sulfonyl}-N-(5-methyl-1,2-oxazol-3-yl)acetamide] | > 10 | – |
| Cc1cc(NC(=O)CS(=O)(=O)c2cn(Cc3ccc(Cl)cc3)c3ccccc23)no1 [compound 48, 2-{1-[(4-chlorophenyl)methyl]-1H-indole-3-sulfonyl}-N-(5-methyl-1,2-oxazol-3-yl)acetamide] | > 10 | – |
| Cc1cc(NC(=O)CS(=O)(=O)c2cn(Cc3cccc(-c4cc[nH]n4)c3F)c3ccccc23)no1 [compound 23, 2-((1-(2-fluoro-3-(1H-pyrazol-3-yl)benzyl)-1H-indol-3-yl)sulfonyl)-N-(5-methylisoxazol-3-yl)acetamide] | 4.4 | 103 |
| Cc1cc(NC(=O)CS(=O)(=O)c2cn(Cc3cc(Br)cc(Br)c3)c3ccccc23)no1 [compound 68, 2-{1-[(3,5-dibromophenyl)methyl]-1H-indole-3-sulfonyl}-N-(5-methyl-1,2-oxazol-3-yl)acetamide] | > 10 | – |
| O=C(CS(=O)(=O)c1cn(Cc2cccc(Br)c2)c2cc(F)cc(F)c12)Nc1ccccn1 [compound 6, 2-((1-(3-bromobenzyl)-4,6-difluoro-1H-indol-3-yl)sulfonyl)-N-(pyridin-2-yl)acetamide] | 2.4 | 62 |
| Cc1cc(NC(=O)CS(=O)(=O)c2cn(Cc3cccc(-c4cnn(C)c4)c3)c3ccccc23)no1 [compound 12, 2-((1-(3-(1-methyl-1H-pyrazol-4-yl)benzyl)-1H-indol-3-yl)sulfonyl)-N-(5-methylisoxazol-3-yl)acetamide] | 2.75 | 95 |
| Cc1cc(NC(=O)C(C)S(=O)(=O)c2cn(Cc3cc(Br)ccc3F)c3ccccc23)no1 (centres unmarked) [compound 63, 2-{1-[(5-bromo-2-fluorophenyl)methyl]-1H-indole-3-sulfonyl}-N-(5-methyl-1,2-oxazol-3-yl)propanamide] | > 10 | – |
| Cc1cc(NC(=O)CS(=O)(=O)c2cn(Cc3cccc(Br)c3F)c3ccccc23)no1 [compound 62, 2-{1-[(3-bromo-2-fluorophenyl)methyl]-1H-indole-3-sulfonyl}-N-(5-methyl-1,2-oxazol-3-yl)acetamide] | > 10 | – |
